# Reference: article PMC8092209, “Structural Basis of Ligand Selectivity by a Bacterial Adhesin Lectin Involved in Multispecies Biofilm Formation” (mBio, 2021)
# How the values were obtained:
# MpPA14 [1] = biological target: T1, MpPA14 (Marinomonas primoryensis, UniProt A1YIY3); assay: Second glycan array (32 polysaccharides, Max Planck Institute for Marine Microbiology); assay type: binding; details: for Binding of MpPA14 (RFUs): normalized signal intensity, maximal mean set to 100, cutoff of 5
# T1 sequence (A1YIY3 entry or part of it): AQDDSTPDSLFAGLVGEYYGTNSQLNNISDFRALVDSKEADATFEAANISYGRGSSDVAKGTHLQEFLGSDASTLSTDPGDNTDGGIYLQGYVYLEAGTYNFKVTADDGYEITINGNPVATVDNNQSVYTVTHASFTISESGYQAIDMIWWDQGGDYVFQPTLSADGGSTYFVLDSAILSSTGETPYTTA
# Description: To expand the repertoire of glycans beyond glucans and mannans, we performed a second focused microarray composed of 32 polysaccharides found in microbes such as fungi and bacteria, as well as in macroalgae and plants (Fig. 4B). […] In addition, MpPA14 interacted avidly with fucoidans from macroalgae. […] This conformer is not present in the arabinan polymer composed of 1,5-linked α-L-arabino-furanoses, which are then not free to transition to the pyranose form. Similarly, since the MpPA14 binds galactose via the 1,2-diol (β-anomer) (Fig. 3H), the lectin cannot interact with galactans, as they are polymers of β-1,4-D-galactose (Fig. 4B and Table S5).
# The second glycan array was performed at the Max Planck Institute for Marine Microbiology (Bremen, Germany). The array contained duplicates of 32 polysaccharides, including those from macroalgae, bacteria, fungi, and land plants (see details in Table S5 in the supplemental material). N-terminally His-tagged MpPA14 was incubated with the array, and binding of the lectin to the polysaccharides was detected by an anti-His tag secondary antibody conjugated to alkaline phosphatase (Sigma-Aldrich). Microarray probing and quantification were performed as previously described ([45]). Maximal mean (average of the duplicates) signal intensity was set to 100, and the rest of values were normalized accordingly. A cutoff of 5 was applied ([58]).
# MpPA14 [2] = biological target: T1, MpPA14; assay: First glycan array (fungal, bacterial and plant polysaccharide array set 2, Imperial College); assay type: binding; details: for binding to MpPA14 in first glycan array (in words): GFP-MpPA14; for Binding of MpPA14 (RFUs): GFP-MpPA14 50 μg/ml, Alexa Fluor 647 anti-GFP antibody, mean of duplicates
substance,measurement,setting,value
Laminarin (β-(1→3)-D-glucan backbone with 1→6 branches) [Laminarin (Eisenia bicyclis)],Binding of MpPA14 (RFUs),MpPA14 [1],39 RFUs
Laminarin (β-(1→3)-D-glucan backbone with 1→6 branches) [Laminarin (Laminaria digitata)],Binding of MpPA14 (RFUs),MpPA14 [1],41 RFUs
"Lentinan (β-(1→3)-D-glucan backbone, β-(1→3)-D-glucan branches)",binding to MpPA14 in first glycan array (in words),MpPA14 [2],bound most avidly
same,Binding of MpPA14 (RFUs),MpPA14 [2],41060 RFUs
Lichenan (β-(1→3)(1→4)-D-glucan) [Lichenan (Icelandic moss)],Binding of MpPA14 (RFUs),MpPA14 [1],44 RFUs
Lichenan Mixed β-(1→3)/β-(1→4)-D-glucan [Lichenan (Lichen)],Binding of MpPA14 (RFUs),MpPA14 [2],349 RFUs
"Mannan (α-(1→6)-D-mannan backbone, α-(1→2)-,α-(1→3)-mannan branches) [Mannan (Saccharomyces cerevisiae)]",binding to MpPA14 in first glycan array (in words),MpPA14 [2],weak binding
same,Binding of MpPA14 (RFUs),MpPA14 [2],3808 RFUs
same,binding to MpPA14 in second glycan array (in words),MpPA14 [1],no detectable interaction
same,Binding of MpPA14 (RFUs),MpPA14 [1],0 RFUs
Mannan (β-(1→4)-D-mannan) [Mannan (Ivory nut)],Binding of MpPA14 (RFUs),MpPA14 [1],15 RFUs
Mannoprotein (mannose rich),binding to MpPA14 in first glycan array (in words),MpPA14 [2],negligible or no detectable binding
same,Binding of MpPA14 (RFUs),MpPA14 [2],0 RFUs
"N -Mannoprotein (α-1→6-mannan backbone with oligomeric α-(1→2)-, α-(1→3)-, and β-(1→2)-mannan branches",binding to MpPA14 in first glycan array (in words),MpPA14 [2],moderate lectin-glycan interactions
same,Binding of MpPA14 (RFUs),MpPA14 [2],17438 RFUs
"NSG (β-(1→3)-D-glucan backbone, β-(1→3)-D-glucan branches)",Binding of MpPA14 (RFUs),MpPA14 [2],2319 RFUs
"PGPGG (β-(1→3)-D-glucan backbone, β-(1→3)-D-glucan branches)",Binding of MpPA14 (RFUs),MpPA14 [2],30143 RFUs
Pachyman (β-(1→3)-D-glucan backbone with 1→6 branches),binding to MpPA14 in second glycan array (in words),MpPA14 [1],significant binding
same,Binding of MpPA14 (RFUs),MpPA14 [1],75 RFUs
Partially acetylated alginate,Binding of MpPA14 (RFUs),MpPA14 [1],0 RFUs
Polygalacturonic acid (α-(1→4)-D-galacturonic acid),Binding of MpPA14 (RFUs),MpPA14 [1],0 RFUs
Porphyran,binding to MpPA14 in second glycan array (in words),MpPA14 [1],did not bind
same,Binding of MpPA14 (RFUs),MpPA14 [1],0 RFUs
Pullulan (α-(1→4)(1→6)-D-glucan),binding to MpPA14 in first glycan array (in words),MpPA14 [2],bound most avidly
same,Binding of MpPA14 (RFUs),MpPA14 [2],58106 RFUs
same,Binding of MpPA14 (RFUs),MpPA14 [1],37 RFUs
Pustulan (β-(1→6)-D-glucan) [Pustulan (Lasallia pustulata)],binding to MpPA14 in second glycan array (in words),MpPA14 [1],significant binding
same,Binding of MpPA14 (RFUs),MpPA14 [1],86 RFUs
Pustulan (β-(1→6)-D-glucan) [Pustulan (Umbilicaria papullosa)],Binding of MpPA14 (RFUs),MpPA14 [2],1565 RFUs
Rhamnogalacturonan I,Binding of MpPA14 (RFUs),MpPA14 [1],0 RFUs
Scleroglucan (β-(1→3)-D-glucan backbone with 1→6 branches),binding to MpPA14 in second glycan array (in words),MpPA14 [1],significant binding
same,Binding of MpPA14 (RFUs),MpPA14 [1],65 RFUs
Ulvan,Binding of MpPA14 (RFUs),MpPA14 [1],34 RFUs
Xyloglucan,binding to MpPA14 in second glycan array (in words),MpPA14 [1],did not bind
same,Binding of MpPA14 (RFUs),MpPA14 [1],0 RFUs
α-(1→5)-L-arabinan,binding to MpPA14 in second glycan array (in words),MpPA14 [1],did not bind
same,Binding of MpPA14 (RFUs),MpPA14 [1],0 RFUs
β-(1→4)-D-galactan,binding to MpPA14 in second glycan array (in words),MpPA14 [1],did not bind
same,Binding of MpPA14 (RFUs),MpPA14 [1],0 RFUs
β-(1→4)-D-xylan,binding to MpPA14 in second glycan array (in words),MpPA14 [1],did not bind
same,Binding of MpPA14 (RFUs),MpPA14 [1],0 RFUs
β-glucan Mixed β-(1→3)/β-(1→4)-D-glucan [β-glucan (Barley)],binding to MpPA14 in first glycan array (in words),MpPA14 [2],negligible or no detectable binding
same,Binding of MpPA14 (RFUs),MpPA14 [2],23 RFUs
same,Binding of MpPA14 (RFUs),MpPA14 [1],0 RFUs
β-glucan Mixed β-(1→3)/β-(1→4)-D-glucan [β-glucan (Oat)],binding to MpPA14 in first glycan array (in words),MpPA14 [2],negligible or no detectable binding
same,Binding of MpPA14 (RFUs),MpPA14 [2],0 RFUs
